Experiments:
Assay type in all cases: in vivo, mice (C57BL/6J)
[1] = system: cholinergic neurons in medial septum/diagonal band (MS/DB); assay: Immunohistochemical staining, cholinergic neurons (ChAT); details: saline-injected mice; Mean±SEM
Protocol: (§1) Further, in some embodiments of the present invention, C57BL/6J strain male mice (12 week old) are used as a subject in need. After mice are allowed to adapt to the environment for 6 days, mice are anesthetized with Avertin (0.4 g/kg; purchased from Sigma). The mice are fixed on a stereotactic apparatus for operation, followed by injecting oligomeric Aβ25-35 (10 nM, 3 μL) into bilateral hippocampal CA1 (AP: […] relative to the bregma; ML: ±[…] relative to the midline; DV: […] relative to the skull) on day 7. MGCD0103 and equal volume of vehicle (saline) are intraperitoneal (i.p.) injected once a day from day 8, the day after said operation, for 29 days. On day 24, the Open Field Test is performed; on day 26, the EPM is performed; on day 28, the Y-maze is performed; on days 30 to 36, MWM is performed; and on day 37, mice are euthanized for pathological analysis.
The inventor collects the brain tissue by perfusion followed by fixing and dehydrating, then, 30 μm frozen sections are obtained by a freezing microtome (CMS3050S, Leica). […] After that, avidin-biotin complex (ABC) is detected 1 hour after staining. […] After all sections have been stained, they are then fixed on a slide, dried, dehydrated, mounted, and photographed for quantity (performed by Image Pro Plus, Meida Cyberetics, USA). […]

[2] = system: mice with oligomeric Aβ25-35 injected into bilateral hippocampal CA1; assay: Elevated Plus Maze Test; details: Aβ25-35 mice, high dose 0.5 mg/kg i.p. once a day
Protocol: as §1
By means of observing the mice exploring an unfamiliar environment, and the contradictory and conflicting behavior caused by fear of the animal of highly hanging arms of the maze, the anxiety level of the animal can be determined. […] The total time spent at the open arms for each mouse was recorded by a video tracking system (EthoVision-XT, Noldus).

[3] = system: NEP (Aβ degrading enzyme); assay: Western blot, NEP; details: hippocampus
Protocol: as §1

synaptophysin = assay: Western blot, synaptophysin; details: Aβ25-35 mice, hippocampus
Protocol: as §1

acetylated alpha-tubulin = assay: Western blot, acetylated alpha-tubulin; details: chronic i.p. treatment, hippocampus
Protocol: as §1

pCDK = assay: Western blot, pCDK; details: hippocampus
Protocol: as §1

[4] = system: BACE1 (Aβ forming enzyme); assay: Western blot, BACE1; details: Aβ25-35 mice, hippocampus
Protocol: as §1

[5] = system: mice with oligomeric Aβ25-35 injected into bilateral hippocampal CA1; assay: Open Field Test; details: for time spent at the central area (anxiety): Aβ25-35 mice, vs Aβ25-35 alone
Protocol: as §1
In an embodiment, OFT is performed to said mice. The mice are placed in a central area of a white box (30 cm×30 cm×30 cm). Then, mice are allowed spontaneously walk for 10 minutes, and the time that mice spend at the central area (15 cm×15 cm×15 cm) in the first 5 minutes is recorded. Since mice tend to spend time at a peripheral area of an open field when anxious, observing the time spent in the central zone there by the mice will give an indication of the level of anxiety of the mice. In addition, counting the total distance that the mice have moved in the last 5 minutes may determine an index of spontaneous exercise ability of the mice. After finishing the test for each mouse, the box was wiped with 70% and 30% (v/v) of ethanol solution to remove remaining odor in order to avoid affecting other test results.

astrocytes = assay: Immunohistochemical staining, astrocytes in hippocampus; details: Aβ25-35 mice
Protocol: as §1
The inventor collects the brain tissue by perfusion followed by fixing and dehydrating, then, 30 μm frozen sections are obtained by a freezing microtome (CMS3050S, Leica). […] After that, avidin-biotin complex (ABC) is detected 1 hour after staining. […] After all sections have been stained, they are then fixed on a slide, dried, dehydrated, mounted, and photographed for quantity (performed by Image Pro Plus, Meida Cyberetics, USA).

[6] = system: IDE (Aβ degrading enzyme); assay: Western blot, IDE; details: Aβ25-35 mice, hippocampus
Protocol: as §1

[7] = high dose 0.5 mg/kg i.p. once a day

Compound: Nc1ccccc1NC(=O)c1ccc(CNc2nccc(-c3cccnc3)n2)cc1 [MGCD0103, N-(2-Aminophenyl)-4-[[(4-pyridin-3-ylpyrimidin-2-yl)amino]methyl] benzamide]
- ChAT, numbers of cholinergic neurons [1]: 52.75 ± 8.27
- time spent in the open arm [2]: significantly increased
- expression of NEP [3]: do not have significant difference
- expression of synaptophysin (synaptophysin): significantly increased
- acetylation level of alpha-tubulin (acetylated alpha-tubulin): significantly improve
- expression of pCDK (pCDK): do not show difference
- expression of BACE1 [4]: does not show a significant difference
- time spent at the central area (anxiety) [5, 7]: significantly increase
- time spent at the central area (anxiety) ([5]; low dose 0.01 mg/kg i.p. once a day): significantly increase
- total moving distance (spontaneous exercise ability) [5, 7]: does not influence
- total moving distance (spontaneous exercise ability) ([5]; low dose 0.01 mg/kg i.p. once a day, vs group treated with saline): reduced
- numbers of astrocytes (astrocytes): significantly decrease
- expression of IDE protein [6]: significantly increased
